The values that follow come from US10934255B2, “Nrf and HIF activators/HDAC inhibitors and therapeutic methods using the same” (THE BOARD OF TRUSTEES OF THE UNIVERSITY OF ILLINOIS, priority 2017, dated 2021).

For experiment [1], the system named is primary cortical neurons. Put plainly: HCA-induced neurodegeneration assay (oxidative stress, glutathione depletion). It counts as cell-based. To be noted: at 0.5 μM; protection declined at higher concentrations due to neurotoxicity. How it is done: FIG. 1 contains bar graphs of % cell survival vs. concentration for HCA evaluation of II-ING-66 using the glutathione depletion neurotoxicity model of oxidative stress. Immature primary cortical neurons were treated with the test compound alone or in the presence of HCA. Cell viability was assessed at 24 h using the MTT assay. Bar plot represents percentage control mean±SEM of viable cells (n=3). *p<0.05 and **p<0.01 compared to control (DMSO) (n=3/group). HCA oxidative stress assay.
Compound II-ING-66 was examined in a model of oxidative stress induced by homocysteic acid (HCA), where neurons were treated with the test compound alone or in the presence of HCA.
It has been shown that HDAC6 inhibition protects against neuronal degeneration and stimulates neurite outgrowth in dorsal root ganglion neurons, therefore indicating methods of treating CNS diseases. Accordingly, present compounds were examined in a model of oxidative stress induced by homocysteic acid (HCA). This model leads to depletion of glutathione, the major intracellular antioxidant. HDAC6 inhibition rescues neuronal death in this model, possibly by causing hyperacetylation of peroxiredoxins. […] (A. P. Kozikowski et al., J. Med. Chem. 2007, 50, 3054-61.) […]

For experiment [2], the system named is prostate cancer (LNCaP) cells. The settings on record: via peroxiredoxin acetylation, published results; cited from earlier work.
The test system of experiment [3] is α-tubulin acetylation. To be noted: published results; cited from earlier work.

In the case of `CC(/C=C/C(=O)NO)=C\[C@@H](C)C(=O)c1ccc(N(C)C)cc1` [TSA, Trichostatin A], the “Neuroprotection in HCA-induced neurodegeneration” value in experiment [1] is given as “moderately neuroprotective”.
`O=C(CCCCCCC(=O)Nc1ccc([C@H]2O[C@@H](CSc3nc(-c4ccccc4)c(-c4ccccc4)o3)C[C@@H](c3ccc(CO)cc3)O2)cc1)NO` [Tubacin]: the “Concentration protecting from hydrogen peroxide-induced death” value in experiment [2] is 8 µM. Also, the “Concentration inducing α-tubulin acetylation” value in experiment [3] is 5 µM.
